{
  "source": "ChEMBL document CHEMBL5465560",
  "about": "“Selectivity Literature for EUbOPEN Chemogenomic Library” (2024)",
  "key": {"[1]": {"biological_target": "Ribosomal protein S6 kinase alpha-2 (Homo sapiens) (UniProt Q15349)", "sequence (Q15349 whole entry)": "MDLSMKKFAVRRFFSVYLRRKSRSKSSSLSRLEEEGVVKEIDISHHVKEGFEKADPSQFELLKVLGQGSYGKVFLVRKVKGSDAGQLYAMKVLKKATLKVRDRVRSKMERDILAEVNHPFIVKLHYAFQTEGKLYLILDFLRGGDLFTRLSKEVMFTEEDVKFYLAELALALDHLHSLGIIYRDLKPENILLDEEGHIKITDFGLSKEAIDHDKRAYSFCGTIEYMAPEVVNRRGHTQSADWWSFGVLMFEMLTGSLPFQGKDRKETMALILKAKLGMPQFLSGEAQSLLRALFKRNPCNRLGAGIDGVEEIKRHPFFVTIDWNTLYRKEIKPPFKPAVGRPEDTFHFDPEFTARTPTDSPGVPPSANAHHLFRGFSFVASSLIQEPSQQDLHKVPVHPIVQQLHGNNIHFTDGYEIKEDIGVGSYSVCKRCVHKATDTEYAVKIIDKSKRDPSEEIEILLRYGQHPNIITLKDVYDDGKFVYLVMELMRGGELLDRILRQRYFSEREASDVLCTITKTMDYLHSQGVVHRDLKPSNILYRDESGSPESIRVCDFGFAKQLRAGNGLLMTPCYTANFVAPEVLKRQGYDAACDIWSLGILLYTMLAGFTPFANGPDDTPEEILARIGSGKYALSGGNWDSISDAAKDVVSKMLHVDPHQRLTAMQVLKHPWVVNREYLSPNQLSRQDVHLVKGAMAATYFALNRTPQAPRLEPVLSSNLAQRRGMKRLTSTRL", "assay": "Selectivity interaction (KinomeScan (DiscoverX)) EUB0000655a RPS6KA2", "conditions": "at 10 µM"}, "[2]": {"biological_target": "Cyclin-dependent kinase-like 3 (Homo sapiens) (UniProt Q8IVW4)", "sequence (Q8IVW4 whole entry, looked up)": "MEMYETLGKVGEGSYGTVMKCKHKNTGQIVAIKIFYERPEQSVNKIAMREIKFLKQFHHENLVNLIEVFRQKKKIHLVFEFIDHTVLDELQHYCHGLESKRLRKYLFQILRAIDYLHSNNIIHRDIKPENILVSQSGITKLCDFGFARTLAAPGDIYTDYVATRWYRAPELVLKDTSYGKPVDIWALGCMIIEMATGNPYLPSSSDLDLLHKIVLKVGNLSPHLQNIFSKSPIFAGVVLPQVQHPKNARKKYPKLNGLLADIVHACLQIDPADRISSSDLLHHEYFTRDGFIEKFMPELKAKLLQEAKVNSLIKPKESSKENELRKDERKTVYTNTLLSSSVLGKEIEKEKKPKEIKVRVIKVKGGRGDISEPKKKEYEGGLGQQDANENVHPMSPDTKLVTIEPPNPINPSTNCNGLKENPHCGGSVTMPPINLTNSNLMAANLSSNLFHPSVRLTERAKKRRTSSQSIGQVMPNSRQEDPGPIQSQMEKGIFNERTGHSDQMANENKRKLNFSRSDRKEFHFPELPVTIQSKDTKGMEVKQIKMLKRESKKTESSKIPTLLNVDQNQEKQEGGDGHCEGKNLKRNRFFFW", "assay": "Selectivity interaction (KinomeScan (DiscoverX)) EUB0001079a CDKL3", "conditions": "at 1 µM"}, "[3]": {"biological_target": "T1, Tyrosine-protein kinase ZAP-70 (Homo sapiens) (UniProt P43403)", "T1 sequence (whole entry)": "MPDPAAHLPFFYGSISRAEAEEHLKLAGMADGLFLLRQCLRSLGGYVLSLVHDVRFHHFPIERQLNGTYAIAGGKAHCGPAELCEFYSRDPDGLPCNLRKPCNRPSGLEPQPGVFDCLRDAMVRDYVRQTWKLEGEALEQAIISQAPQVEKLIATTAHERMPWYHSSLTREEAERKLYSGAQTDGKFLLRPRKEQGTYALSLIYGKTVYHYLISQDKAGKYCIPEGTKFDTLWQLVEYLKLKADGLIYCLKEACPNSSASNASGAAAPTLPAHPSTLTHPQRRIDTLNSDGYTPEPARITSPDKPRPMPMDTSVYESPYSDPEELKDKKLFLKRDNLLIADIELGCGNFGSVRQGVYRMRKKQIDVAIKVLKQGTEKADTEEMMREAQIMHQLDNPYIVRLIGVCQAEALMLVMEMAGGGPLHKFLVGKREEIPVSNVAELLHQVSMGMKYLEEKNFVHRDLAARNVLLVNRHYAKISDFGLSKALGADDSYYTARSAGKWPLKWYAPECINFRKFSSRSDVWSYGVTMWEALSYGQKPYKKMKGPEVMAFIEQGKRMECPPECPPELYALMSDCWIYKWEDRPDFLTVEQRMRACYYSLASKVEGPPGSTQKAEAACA", "assay": "Selectivity interaction (Millipore kinase profiler) EUB0000124b ZAP70", "conditions": "at 10 µM"}, "[4]": {"biological_target": "Ephrin type-A receptor 2 (Homo sapiens) (UniProt P29317)", "assay": "Selectivity interaction (KinomeScan (DiscoverX)) EUB0000607a EPHA2", "conditions": "at 10 µM"}, "[5]": {"system": "Tyrosine-protein kinase JAK2 (Homo sapiens), O60674 [V617F]", "sequence (O60674 whole entry V617F)": "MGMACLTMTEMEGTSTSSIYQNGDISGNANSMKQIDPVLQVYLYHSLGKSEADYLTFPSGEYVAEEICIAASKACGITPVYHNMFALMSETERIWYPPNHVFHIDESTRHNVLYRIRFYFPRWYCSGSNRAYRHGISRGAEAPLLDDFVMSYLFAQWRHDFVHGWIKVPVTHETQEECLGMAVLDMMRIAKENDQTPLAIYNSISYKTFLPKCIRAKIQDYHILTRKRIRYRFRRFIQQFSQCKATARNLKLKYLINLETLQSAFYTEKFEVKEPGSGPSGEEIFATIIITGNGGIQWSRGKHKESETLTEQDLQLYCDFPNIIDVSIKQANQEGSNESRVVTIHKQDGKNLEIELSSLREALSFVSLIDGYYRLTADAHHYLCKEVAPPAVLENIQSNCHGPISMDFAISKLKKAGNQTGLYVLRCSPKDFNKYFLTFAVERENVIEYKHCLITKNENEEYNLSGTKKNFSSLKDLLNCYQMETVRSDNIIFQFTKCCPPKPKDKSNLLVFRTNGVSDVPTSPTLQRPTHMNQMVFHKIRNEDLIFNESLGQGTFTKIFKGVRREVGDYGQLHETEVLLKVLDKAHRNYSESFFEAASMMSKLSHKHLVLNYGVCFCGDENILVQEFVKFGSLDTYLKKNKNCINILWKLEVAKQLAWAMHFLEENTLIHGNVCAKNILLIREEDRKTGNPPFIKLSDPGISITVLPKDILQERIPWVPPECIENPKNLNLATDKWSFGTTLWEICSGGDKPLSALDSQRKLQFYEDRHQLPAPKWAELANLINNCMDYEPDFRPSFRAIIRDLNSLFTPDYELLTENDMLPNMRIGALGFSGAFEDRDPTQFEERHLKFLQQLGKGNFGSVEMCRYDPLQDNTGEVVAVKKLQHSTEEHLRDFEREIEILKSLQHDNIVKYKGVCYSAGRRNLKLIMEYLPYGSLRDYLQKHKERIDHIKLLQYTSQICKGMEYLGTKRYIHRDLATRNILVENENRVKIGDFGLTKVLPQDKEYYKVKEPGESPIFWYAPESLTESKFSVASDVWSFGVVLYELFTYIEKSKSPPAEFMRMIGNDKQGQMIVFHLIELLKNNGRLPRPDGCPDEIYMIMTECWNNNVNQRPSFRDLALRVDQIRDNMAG", "assay": "(§1) Selectivity interaction (SelectScreen profiling (Invitrogen)) EUB0000607a JAK2", "conditions": "at 2 µM"}, "[6]": {"biological_target": "Tyrosine-protein kinase JAK2 (Homo sapiens, UniProt O60674)", "sequence (O60674 whole entry)": "as the sequence (O60674 whole entry V617F) above, with F617V counted along it", "assay": "as §1", "conditions": "at 2 µM"}, "[7]": {"biological_target": "T2, Dual specificity mitogen-activated protein kinase kinase 6 (Homo sapiens) (UniProt P52564)", "T2 sequence (whole entry)": "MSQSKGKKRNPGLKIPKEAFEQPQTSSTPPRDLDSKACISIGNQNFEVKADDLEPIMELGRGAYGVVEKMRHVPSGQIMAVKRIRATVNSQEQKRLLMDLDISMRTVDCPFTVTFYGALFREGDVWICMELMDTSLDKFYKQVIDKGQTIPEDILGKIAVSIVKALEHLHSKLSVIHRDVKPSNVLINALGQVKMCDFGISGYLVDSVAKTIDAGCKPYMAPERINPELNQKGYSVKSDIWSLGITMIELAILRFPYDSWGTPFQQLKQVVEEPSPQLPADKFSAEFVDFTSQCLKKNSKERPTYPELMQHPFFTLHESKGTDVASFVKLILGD", "assay": "Selectivity interaction (ActivX KiNativ screen (ex vivo kinase selectivity in human PBMCs)) EUB0001619a MAP2K6", "type": "cell-based", "conditions": "PBMC, at 1 µM"}, "[8]": {"biological_target": "Cyclin-dependent kinase 16 (Homo sapiens) (UniProt Q00536)", "sequence (Q00536 whole entry)": "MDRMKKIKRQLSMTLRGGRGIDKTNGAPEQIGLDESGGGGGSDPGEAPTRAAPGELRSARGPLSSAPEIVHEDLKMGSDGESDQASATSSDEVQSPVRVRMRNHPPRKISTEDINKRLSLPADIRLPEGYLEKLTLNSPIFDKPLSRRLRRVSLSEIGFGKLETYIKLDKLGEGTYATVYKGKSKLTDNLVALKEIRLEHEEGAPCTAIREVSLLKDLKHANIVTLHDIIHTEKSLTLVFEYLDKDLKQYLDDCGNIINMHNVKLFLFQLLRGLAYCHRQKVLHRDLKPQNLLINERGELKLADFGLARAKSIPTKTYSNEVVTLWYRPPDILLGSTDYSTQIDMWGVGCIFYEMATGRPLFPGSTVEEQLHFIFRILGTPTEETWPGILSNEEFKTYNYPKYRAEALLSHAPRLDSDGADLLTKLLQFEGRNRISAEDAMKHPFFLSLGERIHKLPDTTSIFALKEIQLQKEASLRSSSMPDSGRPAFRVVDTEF", "assay": "Selectivity interaction (KinomeScan (DiscoverX)) EUB0000045b CDK16"}, "[9]": {"biological_target": "Casein kinase I isoform gamma-3 (Homo sapiens) (UniProt Q9Y6M4)", "sequence (Q9Y6M4 whole entry, looked up, canonical isoform)": "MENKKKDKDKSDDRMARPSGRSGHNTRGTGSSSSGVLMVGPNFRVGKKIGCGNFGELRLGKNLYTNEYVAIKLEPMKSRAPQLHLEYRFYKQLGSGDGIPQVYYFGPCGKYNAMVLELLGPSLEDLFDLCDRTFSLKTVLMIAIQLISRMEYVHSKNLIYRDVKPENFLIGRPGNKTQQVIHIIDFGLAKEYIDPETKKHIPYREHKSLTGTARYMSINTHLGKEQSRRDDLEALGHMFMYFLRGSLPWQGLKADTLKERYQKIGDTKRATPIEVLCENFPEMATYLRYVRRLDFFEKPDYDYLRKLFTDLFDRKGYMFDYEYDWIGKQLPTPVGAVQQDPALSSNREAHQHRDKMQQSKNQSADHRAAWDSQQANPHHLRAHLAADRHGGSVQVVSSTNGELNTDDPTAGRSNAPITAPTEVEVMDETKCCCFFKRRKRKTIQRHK", "assay": "Selectivity interaction (KinomeScan (DiscoverX)) EUB0000595a CSNK1G3", "conditions": "at 10 µM"}, "[10]": {"biological_target": "Fibroblast growth factor receptor 2 (Homo sapiens) (UniProt P21802)", "sequence (P21802 22-821 limits assumed)": "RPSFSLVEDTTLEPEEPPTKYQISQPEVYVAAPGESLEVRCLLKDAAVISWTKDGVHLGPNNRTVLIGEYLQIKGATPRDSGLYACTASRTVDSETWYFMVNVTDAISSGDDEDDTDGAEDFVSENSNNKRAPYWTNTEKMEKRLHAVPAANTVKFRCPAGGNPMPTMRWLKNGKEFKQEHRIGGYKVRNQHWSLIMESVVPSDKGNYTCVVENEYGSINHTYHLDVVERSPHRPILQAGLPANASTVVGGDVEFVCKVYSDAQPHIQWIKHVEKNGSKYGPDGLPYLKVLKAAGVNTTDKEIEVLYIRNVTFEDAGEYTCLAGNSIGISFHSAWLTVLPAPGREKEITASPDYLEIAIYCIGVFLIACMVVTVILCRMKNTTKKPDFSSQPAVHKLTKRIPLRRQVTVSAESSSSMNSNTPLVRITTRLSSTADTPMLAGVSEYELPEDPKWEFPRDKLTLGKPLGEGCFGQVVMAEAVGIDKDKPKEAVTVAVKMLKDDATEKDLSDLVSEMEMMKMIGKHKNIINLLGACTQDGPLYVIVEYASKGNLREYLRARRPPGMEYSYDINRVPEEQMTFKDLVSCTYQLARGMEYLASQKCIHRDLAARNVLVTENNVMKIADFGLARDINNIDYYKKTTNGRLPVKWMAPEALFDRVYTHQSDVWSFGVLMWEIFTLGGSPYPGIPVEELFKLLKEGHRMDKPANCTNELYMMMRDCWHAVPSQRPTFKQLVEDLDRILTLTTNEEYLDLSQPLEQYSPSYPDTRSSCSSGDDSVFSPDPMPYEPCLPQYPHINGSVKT", "assay": "Selectivity interaction (Kinase panel (Invitrogen)) EUB0000639a FGFR2", "conditions": "at 200 nM"}, "[11]": {"biological_target": "T3, Mitogen-activated protein kinase 13 (Homo sapiens) (UniProt O15264)", "T3 sequence (whole entry)": "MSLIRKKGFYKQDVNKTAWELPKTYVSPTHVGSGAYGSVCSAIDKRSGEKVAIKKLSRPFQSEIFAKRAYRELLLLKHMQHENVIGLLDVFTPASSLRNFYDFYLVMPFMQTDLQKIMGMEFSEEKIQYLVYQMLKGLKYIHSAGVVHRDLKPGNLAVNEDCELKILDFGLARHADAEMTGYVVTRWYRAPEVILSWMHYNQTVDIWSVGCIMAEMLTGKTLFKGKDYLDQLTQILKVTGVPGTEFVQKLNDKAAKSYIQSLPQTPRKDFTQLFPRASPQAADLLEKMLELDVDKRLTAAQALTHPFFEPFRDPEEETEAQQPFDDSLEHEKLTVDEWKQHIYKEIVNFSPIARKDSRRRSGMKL", "assay": "Selectivity interaction (KinomeScan (DiscoverX)) EUB0000666a MAPK13", "conditions": "at 10 µM"}, "[12]": {"biological_target": "BDNF/NT-3 growth factors receptor (Homo sapiens) (UniProt Q16620)", "sequence (Q16620 32-822 limits assumed)": "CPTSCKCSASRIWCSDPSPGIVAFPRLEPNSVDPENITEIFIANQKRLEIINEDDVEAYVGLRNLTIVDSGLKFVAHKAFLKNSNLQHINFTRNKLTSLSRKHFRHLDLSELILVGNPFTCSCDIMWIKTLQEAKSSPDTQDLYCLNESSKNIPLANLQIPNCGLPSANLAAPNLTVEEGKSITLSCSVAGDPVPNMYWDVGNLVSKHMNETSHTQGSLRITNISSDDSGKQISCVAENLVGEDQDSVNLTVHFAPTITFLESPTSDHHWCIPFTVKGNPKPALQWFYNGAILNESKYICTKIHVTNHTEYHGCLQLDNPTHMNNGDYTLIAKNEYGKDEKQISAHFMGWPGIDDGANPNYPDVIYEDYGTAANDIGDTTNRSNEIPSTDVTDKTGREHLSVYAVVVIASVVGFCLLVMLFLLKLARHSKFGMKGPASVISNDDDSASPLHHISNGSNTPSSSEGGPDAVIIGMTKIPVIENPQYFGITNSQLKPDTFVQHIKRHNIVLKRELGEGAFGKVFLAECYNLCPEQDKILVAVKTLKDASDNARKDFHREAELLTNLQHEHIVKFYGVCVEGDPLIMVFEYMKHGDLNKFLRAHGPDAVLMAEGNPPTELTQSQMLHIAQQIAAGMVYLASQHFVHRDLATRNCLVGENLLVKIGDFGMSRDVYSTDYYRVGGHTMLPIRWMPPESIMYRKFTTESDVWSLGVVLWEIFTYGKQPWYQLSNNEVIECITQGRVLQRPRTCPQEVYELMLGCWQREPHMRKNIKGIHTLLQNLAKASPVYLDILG", "assay": "Selectivity interaction (KinomeScan (DiscoverX)) EUB0000092b NTRK2", "conditions": "at 10 µM"}, "[13]": {"biological_target": "T4, Mitogen-activated protein kinase 15 (Homo sapiens) (UniProt Q8TD08)", "T4 sequence (whole entry)": "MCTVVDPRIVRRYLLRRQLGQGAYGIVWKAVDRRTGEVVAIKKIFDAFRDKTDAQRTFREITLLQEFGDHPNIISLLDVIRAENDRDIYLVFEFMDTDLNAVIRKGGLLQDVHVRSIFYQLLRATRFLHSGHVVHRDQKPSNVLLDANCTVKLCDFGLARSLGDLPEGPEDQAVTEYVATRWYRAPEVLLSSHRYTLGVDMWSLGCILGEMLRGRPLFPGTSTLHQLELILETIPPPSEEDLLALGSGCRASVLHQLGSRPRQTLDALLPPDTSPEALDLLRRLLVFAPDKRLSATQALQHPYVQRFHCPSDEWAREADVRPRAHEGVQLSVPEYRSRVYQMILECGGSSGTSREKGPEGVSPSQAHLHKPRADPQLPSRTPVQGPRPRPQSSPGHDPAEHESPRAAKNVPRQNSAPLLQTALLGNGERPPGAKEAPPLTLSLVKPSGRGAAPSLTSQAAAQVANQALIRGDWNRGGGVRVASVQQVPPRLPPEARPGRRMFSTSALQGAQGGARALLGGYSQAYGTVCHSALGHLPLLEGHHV", "assay": "Selectivity interaction (KinomeScan (DiscoverX)) EUB0000092b MAPK15", "conditions": "at 10 µM"}},
  "data": [
    {"smiles": "CN(C)CCOc1ccc(-c2nc(-c3ccncc3)c(-c3ccc4c(c3)CC/C4=N\\O)[nH]2)cc1", "values": [
      {"measurement": "% of control", "setting": "[1]", "result": 61, "unit": "%"}
    ]},
    {"smiles": "Nc1cnc(N2CCc3cc(S(=O)(=O)Nc4c(F)cc(Cl)cc4F)cc(N4CCCC4=O)c32)nc1", "note": "[TP-020n]", "values": [
      {"measurement": "% of control", "setting": "[2]", "result": 100, "unit": "%"}
    ]},
    {"smiles": "CC(=O)Nc1cccc(-n2c(=O)n(C3CC3)c(=O)c3c(Nc4ccc(I)cc4F)n(C)c(=O)c(C)c32)c1", "values": [
      {"measurement": "% of control", "setting": "[3]", "result": 111, "unit": "%"}
    ]},
    {"smiles": "CNC(=O)Nc1ccc(-c2nc(N3CC4CCC(C3)O4)c3cnn(C4CCC5(CC4)OCCO5)c3n2)cc1", "values": [
      {"measurement": "% of control", "setting": "[4]", "result": 81, "unit": "%"},
      {"measurement": "% of inhibition", "setting": "[5]", "result": 4, "unit": "%"},
      {"measurement": "% of inhibition", "setting": "[6]", "result": -3, "unit": "%"}
    ]},
    {"smiles": "N#Cc1cccc(-c2c[nH]c3ncnc(N4CCOCC4)c23)c1", "values": [
      {"measurement": "% of inhibition", "setting": "[7]", "result": 14, "unit": "%"}
    ]},
    {"smiles": "C=CC(=O)Nc1cc(-n2c(=O)ccc3cnc4ccc(-c5ccc(NS(C)(=O)=O)cc5)cc4c32)ccc1C", "values": [
      {"measurement": "% of control", "setting": "[8]; at 1 µM", "result": 100, "unit": "%"},
      {"measurement": "% of control", "setting": "[8]; at 10 µM", "result": 100, "unit": "%"}
    ]},
    {"smiles": "COCC(=O)NC/C=C/c1ccc2ncnc(Nc3ccc(Oc4ccc(C)nc4)c(C)c3)c2c1", "note": "[CP-724714]", "values": [
      {"measurement": "% of control", "setting": "[9]", "result": 100, "unit": "%"}
    ]},
    {"smiles": "CC[C@@H]1[C@H](F)C(=O)N[C@@H]1COc1nccc2cc(C(N)=O)c(OC)cc12", "note": "[ZIMLOVISERTIB]", "values": [
      {"measurement": "% of inhibition", "setting": "[10]", "result": -3.82, "unit": "%"}
    ]},
    {"smiles": "O=C(NOC[C@H](O)CO)c1ccc(F)c(F)c1Nc1ccc(I)cc1F", "values": [
      {"measurement": "% of control", "setting": "[11]", "result": 6.1, "unit": "%"}
    ]},
    {"smiles": "CCC(=O)N1CCN(c2ccc(-n3c(=O)ccc4cnc5ccc(-c6cnc7ccccc7c6)cc5c43)cc2C(F)(F)F)CC1", "values": [
      {"measurement": "% of control", "setting": "[12]", "result": 81, "unit": "%"},
      {"measurement": "% of control", "setting": "[13]", "result": 79, "unit": "%"}
    ]}
  ]
}
